# Reference: ChEMBL document CHEMBL1155394, “SARS-CoV 3CLpro inhibitory effects of quinone-methide triterpenes from Tripterygium regelii” (Bioorg Med Chem Lett, 2010)
# What was measured:
# [1] = biological target: T1, Replicase polyprotein 1ab (Severe acute respiratory syndrome-related coronavirus, UniProt P0C6X7); experiment: Inhibition of 3C-like protease of SARS coronavirus assessed as concentration of FRET peptide for 60 mins
# [2] = biological target: T1, Replicase polyprotein 1ab; experiment: Inhibition of 3C-like protease of SARS coronavirus assessed as concentration of FRET peptide for 60 mins by dixon plot
Structure (SMILES),IC50 [1] [µM],Ki [2] [µM]
CC1=C(O)C(=O)C=C2C1=CC=C1[C@@]2(C)CC[C@@]2(C)[C@@H]3C[C@@H](C)C(=O)C[C@]3(C)CC[C@]12C [TINGENONE],9.9,4
CC1=C(O)C(=O)C=C2C1=CC=C1[C@@]2(C)CC[C@@]2(C)[C@@H]3C[C@](C)(C(=O)O)CC[C@]3(C)CC[C@]12C [CELASTROL],10.3,4.2
COC(=O)[C@]1(C)CC[C@]2(C)CC[C@]3(C)C4=CC=C5C(=CC(=O)C(O)=C5C)[C@]4(C)CC[C@@]3(C)[C@@H]2C1 [PRISTIMERIN],5.5,3.1
Cc1c(O)c(O)cc2c1CC=C1[C@@]2(C)CC[C@@]2(C)[C@@H]3C[C@](C)(C(=O)O)CC[C@]3(C)CC[C@]12C [DIHYDROCELASTROL],21.7,
COc1cc(/C=C/C(=O)CC(=O)/C=C/c2ccc(O)c(OC)c2)ccc1O [CURCUMIN],23.5,
